Measurements as given in patent publication US6362166B1, “Antipicornaviral compounds and methods for their use and preparation” (Agouron Pharmaceuticals, Inc., priority 1996, dated 2002).
Where two headings read alike, the source gives them in different places.

What was measured:
[1] = biological target: T1, Recombinant Rhinovirus 3C protease (RVP) serotype 2 (Human rhinovirus 2, UniProt P04936); test: Inhibition of Rhinovirus Protease (fluorescence resonance energy transfer assay), serotype 2; format: biochemical, human rhinovirus (HRV); conditions: for kobs/I: progress curves in enzyme start experiments
T1 construct: Recombinant Rhinovirus 3C proteases from serotypes 14, 16, 2 or 89; made in house
T1 sequence (P04936 1508-1690): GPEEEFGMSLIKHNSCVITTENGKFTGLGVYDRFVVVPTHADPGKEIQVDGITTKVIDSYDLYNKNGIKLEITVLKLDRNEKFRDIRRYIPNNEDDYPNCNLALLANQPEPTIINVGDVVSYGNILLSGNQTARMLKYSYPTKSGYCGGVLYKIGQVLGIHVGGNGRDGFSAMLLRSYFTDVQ
Description: (§1) Stock solution (50 mM, in DMSO) of various compounds were prepared; dilutions were in the same solvent. Recombinant Rhinovirus 3C proteases from serotypes 14, 16, 2 or 89 were prepared by the following standard chromatographic procedures: (1) ion exchange using Q Sepharose Fast Flow from Pharmacia; (2) affinity chromatography using Affi-Gel Blue from Biorad; and (3) sizing using Sephadex G-100 from Pharmacia. Assays contained 2% DMSO, 50 mM tris pH 7.6, 1 mM EDTA, a compound at the indicated concentrations, approximately 1 μM substrate, and 50-100 nM protease. […] The kobs/I values were obtained from reactions initiated by addition of enzyme rather than substrate. RVP activity is measured in the fluorescence resonance energy transfer assay. The substrate was (N-terminal) DABCYL-([…]Gyl)-EDANS. In the uncleaved peptide, the EDANS fluorescence was quenched by the proximal DABCYL moeity. When the peptide was cleaved, the quenching was relieved, and activity was measured as an increase in fluorescence signal.
(§2) In the above table, all data is RVP serotype-14 unless otherwise noted in parentheses. All strains of human rhinovirus (HRV) were purchased from American Type Culture Collection (ATCC), except for serotype 14, which was produced from the infectious cDNA clone constructed and supplied to us by Dr. Roland Rueckert at the Institute for Molecular Virology, University of Wisconsin, Madison, Wisc. […] The data in the column designated kobs/I was measured from progress curves in enzyme start experiments.

[2] = biological target: T2, Recombinant Rhinovirus 3C protease (RVP) serotype 16 (Human rhinovirus 16, UniProt Q82122); test: Inhibition of Rhinovirus Protease (fluorescence resonance energy transfer assay), serotype 16; format: biochemical, human rhinovirus (HRV); conditions: for kobs/I / kinact/KI: progress curves in enzyme start experiments; for kinact/KI: pH 7.6, read-out: kobs/I
T2 construct: Recombinant Rhinovirus 3C proteases from serotypes 14, 16, 2 or 89; made in house
T2 sequence (Q82122 1511-1693): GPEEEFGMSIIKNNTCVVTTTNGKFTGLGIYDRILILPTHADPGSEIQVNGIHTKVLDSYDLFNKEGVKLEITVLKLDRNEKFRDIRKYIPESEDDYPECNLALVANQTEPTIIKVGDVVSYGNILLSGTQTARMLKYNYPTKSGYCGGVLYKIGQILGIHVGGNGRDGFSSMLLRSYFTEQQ
Description: as §1, §2

HI-HeLa cells = test: Cytotoxicity in mock-infected HI-HeLa cells (antirhinoviral assay, XTT); format: cell-based
[3] = biological target: T3, Recombinant Rhinovirus 3C protease (RVP) serotype-14 (Human rhinovirus 14, UniProt P03303); test: Inhibition of Rhinovirus Protease (fluorescence resonance energy transfer assay), serotype 14; format: biochemical, human rhinovirus (HRV); conditions: for kobs/I: progress curves in enzyme start experiments; for kinact/KI: pH 7.6, read-out: kobs/I
T3 construct: Recombinant Rhinovirus 3C proteases from serotypes 14, 16, 2 or 89; made in house
T3 sequence (P03303 1538-1719): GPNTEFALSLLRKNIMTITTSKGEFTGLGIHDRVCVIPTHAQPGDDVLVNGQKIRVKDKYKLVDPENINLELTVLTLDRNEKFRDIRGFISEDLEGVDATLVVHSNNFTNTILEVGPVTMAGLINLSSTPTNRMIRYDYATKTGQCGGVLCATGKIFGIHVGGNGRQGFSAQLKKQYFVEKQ

HRV-14 = test: Antirhinoviral HI-HeLa Cell Culture Assay (Cell Protection Assay, XTT dye reduction); format: cell-based, human rhinovirus (HRV) serotype-14
Method in brief: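 Protection measured via XTT dye reduction (450/650 nm) two days after compound treatment of HI-HeLa cells, mock-infected or infected with cDNA-derived HRV-14 at m.o.i. 0.13. CC50 divided by EC50 gives the therapeutic index.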

[4] = Cytotoxicity in mock-infected HI-HeLa cells (antirhinoviral assay, XTT); format: cell-based; conditions: human; mock-infected HI-HeLa cells; two days; XTT; read-out: CC50
[5] = mock-infected HI-HeLa cells, two days, XTT, read-out: CC50
[6] = HI-HeLa cells infected with HRV-14, m.o.i. 0.13, two days, XTT, read-out: EC50
[7] = Rhinovirus B, HRV14, 48 h, HI-HeLa cells infected with HRV-14, m.o.i. 0.13, two days, XTT, read-out: EC50
[8] = RVP serotype-14, 10 minute preincubation, substrate start, read-out: INHIB (Ki)

Structure (SMILES) | kobs/I [1] | kobs/I ([2]; RVP serotype 16) | kobs/I ([3]; RVP serotype-14) | EC50 (HRV-14; [6]) | CC50 (HI-HeLa cells) | CC50 at 2 days [4] | Ki [3] | kinact/KI [3] | EC50 (HRV-14; [7]) | further results
CCOC(=O)/C=C/[C@H](CCC(N)=O)NC(=O)[C@H](CC1CCCCC1)NC(=O)[C@H](CC(C)C)NC(=O)OCc1ccccc1 [Compound 135] | 671 M⁻¹ s⁻¹ | 3,465 M-1 sec-1 | 16,270 M-1 sec-1 | 1.9 µM | – | – | – | – | – | CC50 (HI-HeLa cells; [5]): > 320 µM
CCOC(=O)/C=C/[C@H](CCC(N)=O)NC(=O)[C@H](Cc1ccccc1)NC(=O)[C@H](C[S+]([O-])Cc1ccccc1)NC(=O)OCc1ccccc1 (stereo partly drawn) [Compound 166] | 3,500 M-1 sec-1 | 7,700 M-1 sec-1 | 40,900 M-1 sec-1 | 5.6 µM | > 100 µM | – | – | – | – | –
COC(=O)/C=C\[C@H](CCC(N)=O)NC(=O)[C@H](Cc1ccccc1)NC(=O)[C@H](CC(C)C)NC(=O)OCc1ccccc1 [Compound 7, Methyl-3-(CBZ-L-Leu-L-Phe-L-Gln)-Z-Propenoate] | – | – | – | – | – | > 320 µM | 9.5 µM | 2400 M⁻¹ s⁻¹ | 3.2 µM | inhibition at 1 µM ([2]; RVP serotype 16, 1 μM compound, 10 minute preincubation with 50 nM RVP, read-out: INHIB (percent inhibition)): 42%
CCOC(=O)C=CC(CCC(N)=O)NC(=O)C(Cc1ccccc1)NC(=O)C(NC(=O)OCc1ccccc1)C(C)CC (stereo not drawn) [Compound 172] | 2,000 M-1 sec-1 | 6,000 M-1 sec-1 | 31,700 M-1 sec-1 | 0.79 µM | > 100 µM | – | – | – | – | –
CCOC(=O)/C=C/[C@H](CCC(N)=O)NC(=O)[C@H](Cc1ccccc1)NC(=O)[C@@H](NC(=O)OCc1ccccc1)C(C)C [Compound 146] | 7,790 M-1 sec-1 | 16,900 M-1 sec-1 | 62,500 M-1 sec-1 | 0.38 µM | > 320 µM | – | – | – | – | –
CCOC(=O)/C=C/[C@H](CCC(N)=O)NC(=O)[C@H](Cc1ccccc1)NC(=O)[C@@H](NC(=O)SCC)C(C)(C)C [Compound 167, Ethyl-3-[Ethylthiocarbonyl-L-α-(t-Butyl-Gly)-L-Phe-L-Gln]-E-Propenoate] | 10,700 M-1 sec-1 | 42,100 M-1 sec-1 | 165,400 M-1 sec-1 | 0.083 µM | > 100 µM | – | – | – | – | –
CCOC(=O)/C=C/[C@H](CCC(N)=O)NC(=O)[C@H](Cc1ccccc1)NC(=O)[C@H](CC(C)C)NC(=O)SC(C)C [Compound 170] | 8,400 M-1 sec-1 | 30,000 M-1 sec-1 | 85,300 M-1 sec-1 | 0.2 µM | > 100 µM | – | – | – | – | –
CCOC(=O)/C(C)=C/[C@H](CCC(N)=O)NC(=O)[C@H](Cc1ccccc1)NC(=O)[C@H](CC(C)C)NC(=O)SC(C)C [Compound 171] | 830 M⁻¹ s⁻¹ | 3,250 M-1 sec-1 | 21,200 M-1 sec-1 | 0.71 µM | > 100 µM | – | – | – | – | –
CCOC(=O)/C=C/[C@H](CCC(N)=O)NC(=O)[C@H](Cc1ccc(CCO)cc1)NC(=O)[C@H](CC(C)C)NC(=O)OCc1ccccc1 [Compound 139] | 691 M⁻¹ s⁻¹ | 1,259 M-1 sec-1 | 43,140 M-1 sec-1 | 3.5 µM | > 320 µM | – | – | – | – | –
CCOC(=O)/C=C/[C@H](CCC(N)=O)NC(=O)[C@H](Cc1ccc(F)cc1)NC(=O)[C@H](CC(C)C)NC(=O)OCc1ccccc1 [Compound 35, Ethyl-3-[CBZ-L-Leu-L-(4-F-Phe)-L-Gln]-E-Propenoate] | 2,357 M-1 sec-1 | 9,177 M-1 sec-1 | 46,388 M-1 sec-1 | 1.8 µM | – | – | – | – | – | CC50 (HI-HeLa cells; [5]): > 320 µM; Ki [3, 8]: 16.5 µM
CC(C)C[C@H](NC(=O)OCc1ccccc1)C(=O)N[C@@H](Cc1ccccc1)C(=O)N[C@H](/C=C/C(=O)N1CCCC1=O)CCC(N)=O [Compound 61] | 14,000 M-1 sec-1 | 25,000 M-1 sec-1 | 125,940 M-1 sec-1 | 0.89 µM | 56 µM | – | – | – | – | –
CCOC(=O)/C=C/[C@H](CCC(N)=O)NC(=O)[C@H](Cc1ccc(CO)cc1)NC(=O)[C@H](CC(C)C)NC(=O)OCc1ccccc1 [Compound 114] | – | – | – | – | – | > 320 µM | ≥ 1 µM | 82300 M⁻¹ s⁻¹ | 0.55 µM | kinact/KI ([1]; pH 7.6, progress curves in enzyme start experiments, read-out: kobs/I): 1970 M⁻¹ s⁻¹
CC(C)C[C@H](NC(=O)OCc1ccccc1)C(=O)N[C@@H](Cc1ccccc1)C(=O)N[C@H](/C=C/C(=O)n1ccc2ccccc21)CCC(N)=O [Compound 89] | – | – | – | – | – | 29 µM | 5 µM | 53400 M⁻¹ s⁻¹ | 1.8 µM | kinact/KI ([2]; RVP serotype 16): 2800 M⁻¹ s⁻¹
CCOC(=O)/C=C/[C@H](CCC(N)=O)NC(=O)[C@H](Cc1ccccc1)NC(=O)[C@H](CC(C)C)NC(=O)c1ccc(Oc2ccccc2)cc1 [Compound 104] | – | – | – | – | – | > 320 µM | 2.5 µM | 8000 M⁻¹ s⁻¹ | 5.2 µM | Ki [2]: 1.5 µM
CCOC(=O)/C=C/[C@H](CCC(N)=O)NC(=O)[C@H](Cc1ccccc1)NC(=O)[C@H](Cc1ccccc1)NC(=O)SCc1ccccc1 [Compound 161] | 200,000 M-1 sec-1 | 126,000 M-1 sec-1 | 1,086,000 M-1 sec-1 | 0.17 µM | > 100 µM | – | – | – | – | –
CC(C)CC(NC(=O)OCc1ccccc1)C(=O)NC(Cc1ccccc1)C(=O)NC(C=C1CCOC1=O)CCC(N)=O (stereo not drawn) [Compound 90] | – | 3,600 M-1 sec-1 | 10,918 M-1 sec-1 | 5.2 µM | > 320 µM | – | – | – | – | –
CCOC(=O)/C=C/[C@H](CCC(N)=O)NC(=O)[C@H](Cc1ccccc1)NC(=O)[C@H](CC(=O)N(C)C)NC(=O)OCc1ccccc1 [Compound 158] | 2,200 M-1 sec-1 | 6,400 M-1 sec-1 | 22,600 M-1 sec-1 | 5.9 µM | > 320 µM | – | – | – | – | Ki [3, 8]: 17 µM
CC(C)C[C@H](NC(=O)OCc1ccccc1)C(=O)N[C@@H](Cc1ccccc1)C(=O)N[C@H](/C=C/C(=O)OCC(C)(C)C)CCC(N)=O [Compound 163] | – | – | – | – | – | > 100 µM | 3.6 µM | 9800 M⁻¹ s⁻¹ | 0.5 µM | –
CCOC(=O)/C=C/[C@H](CCC(N)=O)NC(=O)[C@H](Cc1ccc(C)cc1)NC(=O)[C@@H](NC(=O)SC1CCCC1)C(C)C [Compound 183] | – | – | – | – | – | > 100 µM | 0.55 µM | 500000 M⁻¹ s⁻¹ | – | kinact/KI ([2]; RVP serotype 16): 60000 M⁻¹ s⁻¹; EC50 (HRV-14; Rhinovirus B, HRV14, 48 h): 0.03 µM
CON=C/C=C/[C@H](CCC(N)=O)NC(=O)[C@H](Cc1ccccc1)NC(=O)[C@H](CC(C)C)NC(=O)OCc1ccccc1 [Compound 83] | – | – | – | – | – | > 320 µM | 8 µM | – | 100 µM | –
CCOC(=O)/C=C/[C@H](COC(N)=O)NC(=O)[C@H](Cc1ccccc1)NC(=O)[C@H](CC(C)C)NC(=O)OCc1ccccc1 [Compound 56] | – | – | – | – | – | > 320 µM | 15 µM | 5620 M⁻¹ s⁻¹ | 1.6 µM | –
CCOC(=O)/C=C/[C@H](CCC(N)=O)NC(=O)[C@H](Cc1ccccc1)NC(=O)CNC(=O)OCc1ccccc1 [Compound 102] | – | – | – | – | – | > 320 µM | 12 µM | 3840 M⁻¹ s⁻¹ | 5.6 µM | –
CC(C)C[C@H](NC(=O)OCc1ccccc1)C(=O)N[C@@H](Cc1ccccc1)C(=O)N[C@H](/C=C/C(=O)N(C)O)CCC(N)=O [Compound 138] | – | – | – | – | – | 41.7 µM | 20 µM | 1770 M⁻¹ s⁻¹ | > 41.7 µM | –
CCOC(=O)/C=C/[C@H](CCC(N)=O)NC(=O)[C@H](Cc1ccccc1)NC(=O)[C@H](CC(C)C)NC(=O)CCO [Compound 115] | – | – | – | – | – | > 320 µM | 11 µM | 4480 M⁻¹ s⁻¹ | 19 µM | –
